From article PMC4634205 (Cancer research, 2015)
Entries after “also recorded” stand apart in the source; their conditions may differ. Structures can show the parent of a compound that is named as a salt. Where two headings read alike, the source gives them in different places.

Legend:
[1] = Vemurafenib pharmacokinetics in huPXR/huCAR/huCYP3A4/3A7 mice; assay type: in vivo, mouse; details: for AUC: AUCall of vemurafenib
[2] = test system: Cyp2b; assay: Western blot of hepatic microsomal Cyp2b; assay type: in vivo, mouse; details: huPXR/huCAR/huCYP3A4/3A7 mice
[3] = test system: CYP3A4
[4] = assay type: in vivo, mouse
[5] = test system: SLCO1B1; details: cited from earlier work
[6] = test system: OH-vemurafenib formation in pooled HLM; assay: Inhibition of OH-vemurafenib formation in pooled HLM by CYP inhibitors; assay type: in vitro ADME, human; details: pooled HLM 0.2 mg/mL, 60 μM vemurafenib, 10 min; 1 μM ketoconazole, 2 μM sulfaphenazole
[7] = test system: Abcb1a; assay: TaqMan RT-PCR of small intestinal Abcb1a mRNA; assay type: in vivo, mouse
[8] = test system: Abcb1b; assay: TaqMan RT-PCR of small intestinal Abcb1b mRNA; assay type: in vivo, mouse
[9] = test system: Abcg2; assay: TaqMan RT-PCR of small intestinal Abcg2 mRNA; assay type: in vivo, mouse; details: huPXR/huCAR/huCYP3A4/3A7 mice treated with RIF
[10] = Microsomal stability in pooled human liver microsomes; assay type: in vitro ADME; details: 1 μM, 0.2 mg/mL pooled HLM, presence and absence of NADPH, up to 50 min
[11] = Apparent kinetics of OH-vemurafenib formation in HLM; assay type: in vitro ADME, human
[12] = Apparent kinetics of OH-vemurafenib formation in MLM; assay type: in vitro ADME, mouse; details: Hill equation fit
[13] = molecular target: T1, CYP3A4 (Homo sapiens, UniProt P08684); assay: biochemical
Target sequence in this assay (P08684 2-503): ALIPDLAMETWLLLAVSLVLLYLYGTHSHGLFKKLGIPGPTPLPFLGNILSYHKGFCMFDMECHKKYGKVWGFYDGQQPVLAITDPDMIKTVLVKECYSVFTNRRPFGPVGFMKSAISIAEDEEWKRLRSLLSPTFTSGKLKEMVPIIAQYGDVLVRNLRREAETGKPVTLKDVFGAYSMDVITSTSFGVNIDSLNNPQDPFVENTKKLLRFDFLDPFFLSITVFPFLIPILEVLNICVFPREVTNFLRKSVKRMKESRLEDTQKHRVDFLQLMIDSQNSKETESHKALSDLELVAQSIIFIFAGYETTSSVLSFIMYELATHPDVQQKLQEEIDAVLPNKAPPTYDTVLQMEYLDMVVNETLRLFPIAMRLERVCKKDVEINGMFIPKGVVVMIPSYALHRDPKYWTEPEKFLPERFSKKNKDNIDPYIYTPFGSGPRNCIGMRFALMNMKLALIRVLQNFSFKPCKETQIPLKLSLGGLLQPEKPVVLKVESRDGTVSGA

[14] = test system: DPX2 cells; assay: Toxicity in DPX2 cells in the PXR-transactivation assay; assay type: cell-based; details: top two concentrations (41.67 and 125 μM), 48 hours
[15] = Vemurafenib pharmacokinetics in huPXR/huCAR mice; assay type: in vivo; details: male, mouse, whole blood, po, 50 mg/kg, AUCall of vemurafenib, RIF pre-treatment, Figure 3A
[16] = test system: CYP3A4; assay: TaqMan RT-PCR of small intestinal CYP3A4 mRNA; assay type: in vivo, mouse; details: MBP vemurafenib 100 mg/kg b.i.d. four days
[17] = test system: Cyp1a; assay: Western blot of hepatic microsomal Cyp1a; assay type: in vivo, mouse; details: huPXR/huCAR/huCYP3A4/3A7 mice, MBP vemurafenib 100 mg/kg b.i.d. four days
[18] = assay type: in vivo; details: huPXR/huCAR/huCYP3A4/3A7, mouse, whole blood, po, 100 mg/kg
[19] = molecular target: T1, CYP3A4
Target sequence in this assay (P08684 whole entry): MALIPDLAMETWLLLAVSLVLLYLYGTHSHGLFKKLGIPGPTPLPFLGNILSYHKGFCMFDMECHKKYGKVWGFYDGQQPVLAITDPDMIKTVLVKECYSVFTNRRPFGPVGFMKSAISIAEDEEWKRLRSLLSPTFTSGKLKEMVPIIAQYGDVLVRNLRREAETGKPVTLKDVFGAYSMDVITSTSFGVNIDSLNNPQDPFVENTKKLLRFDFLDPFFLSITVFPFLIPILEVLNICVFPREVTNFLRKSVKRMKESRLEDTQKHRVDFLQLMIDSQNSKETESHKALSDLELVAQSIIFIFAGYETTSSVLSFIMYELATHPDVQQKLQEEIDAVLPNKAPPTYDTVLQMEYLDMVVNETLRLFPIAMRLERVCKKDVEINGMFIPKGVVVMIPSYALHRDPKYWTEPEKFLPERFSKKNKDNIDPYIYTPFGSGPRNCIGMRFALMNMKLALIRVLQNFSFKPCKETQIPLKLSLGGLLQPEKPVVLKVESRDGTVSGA

[20] = molecular target: T2, CYP2C9 (Homo sapiens, UniProt P11712); details: 60 μM compound, 400 pmol/mL enzyme, 15 min
[21] = test system: COLO205 xenografts; details: cited from earlier work
[22] = read-out: Cmax (mean) in patients at steady state; cited from earlier work
[23] = test system: BRAF^V600E-positive metastatic melanoma; details: single agent, all patients with BRAF V600E-positive metastatic melanoma; cited from earlier work
[24] = cited from earlier work
[25] = test system: CYP3A4; details: patients at steady state; cited from earlier work
[26] = test system: CYP1A2; details: patients at steady state; cited from earlier work
[27] = test system: CYP2D6; details: patients at steady state; cited from earlier work
[28] = crystalline form, physiological pH; cited from earlier work
[29] = test system: ABCB1; details: MDCK-ABCB1 cell line; cited from earlier work
[30] = molecular target: T2, CYP2C9; assay: in vitro; details: recombinant CYP2C9, pH 7.4
[31] = molecular target: T3, PXR (Homo sapiens, UniProt O75469); assay: PXR-transactivation assay in DPX2 cells
T3 sequence (O75469 1-434): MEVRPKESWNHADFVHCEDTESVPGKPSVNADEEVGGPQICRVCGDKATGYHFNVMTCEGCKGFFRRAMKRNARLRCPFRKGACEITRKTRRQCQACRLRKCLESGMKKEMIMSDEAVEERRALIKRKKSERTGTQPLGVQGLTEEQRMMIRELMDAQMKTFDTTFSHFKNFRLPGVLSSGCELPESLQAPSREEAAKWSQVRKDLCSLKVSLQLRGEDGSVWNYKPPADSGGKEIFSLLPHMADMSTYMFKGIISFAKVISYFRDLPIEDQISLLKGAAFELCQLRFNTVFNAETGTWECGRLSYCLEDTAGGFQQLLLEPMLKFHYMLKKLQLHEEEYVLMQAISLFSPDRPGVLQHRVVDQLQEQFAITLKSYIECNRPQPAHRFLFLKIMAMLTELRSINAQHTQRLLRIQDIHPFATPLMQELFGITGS

[32] = huPXR/huCAR/huCYP3A4/3A7 mice treated with RIF
[33] = MBP vemurafenib 100 mg/kg b.i.d. four days

T2 sequence (P11712 whole entry): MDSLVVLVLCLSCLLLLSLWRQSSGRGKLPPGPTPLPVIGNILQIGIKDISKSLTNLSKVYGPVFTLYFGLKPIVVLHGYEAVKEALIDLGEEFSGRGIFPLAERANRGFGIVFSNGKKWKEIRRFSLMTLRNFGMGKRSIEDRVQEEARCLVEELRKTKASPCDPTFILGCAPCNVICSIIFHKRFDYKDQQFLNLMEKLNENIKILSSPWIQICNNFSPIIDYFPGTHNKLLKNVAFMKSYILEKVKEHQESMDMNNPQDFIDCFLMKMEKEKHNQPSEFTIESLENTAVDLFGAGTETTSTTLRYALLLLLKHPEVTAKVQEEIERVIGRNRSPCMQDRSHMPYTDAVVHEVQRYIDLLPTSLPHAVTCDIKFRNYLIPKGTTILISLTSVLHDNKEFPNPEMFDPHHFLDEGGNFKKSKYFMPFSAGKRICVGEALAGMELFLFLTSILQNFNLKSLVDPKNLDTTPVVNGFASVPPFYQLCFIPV

## CCC1(c2ccccc2)C(=O)NC(=O)NC1=O [PB, Phenobarbital]
[1]; PB 80 mg/kg i.p. for three days, huPXR/huCAR/huCYP3A4/3A7 mice
  Effect of PB pre-treatment on vemurafenib kinetic parameters: no effect
[2]
  Hepatic Cyp2b / Cyp2b10 protein (Western blot): induction
[3]; mouse, in vivo
  Hepatic CYP3A4 protein (Western blot): weakly inducing

## CC(=O)[C@H]1[C@H](C#N)C[C@H]2[C@@H]3CC=C4C[C@@H](O)CC[C@]4(C)[C@H]3CC[C@@]21C [PCN, 5-pregnenolone-3β-ol-20-one-16α-carbonitrile]
[4]; PCN 10 mg/kg i.p. three days, Cyp3a null and huCYP3A4/3A7 animals
  Effect of PCN pre-treatment on vemurafenib clearance: enhanced clearance equally well
[3]; huCYP3A4/3A7 mice, PCN three days
  Hepatic CYP3A4 protein (Western blot): effectively induced

## COc1cc2c(cc1OC)CN(CCc1ccc(NC(=O)c3cccc4c(=O)c5cccc(OC)c5[nH]c34)cc1)CC2 [elacridar, Elacridar hydrochloride]
[5]
  Inhibition of SLCO1B1: known to inhibit

## CC(=O)N1CCN(c2ccc(OCC3COC(Cn4ccnc4)(c4ccc(Cl)cc4Cl)O3)cc2)CC1 (stereo not drawn) [ketoconazole]
[6]
  Inhibition of OH-vemurafenib formation: significantly inhibited

## CO[C@H]1/C=C/O[C@@]2(C)Oc3c(C)c(O)c4c(O)c(c(/C=N/N5CCN(C)CC5)c(O)c4c3C2=O)NC(=O)/C(C)=C\C=C\[C@H](C)[C@H](O)[C@@H](C)[C@@H](O)[C@@H](C)[C@H](OC(C)=O)[C@@H]1C [rifampicin]
[7]; [32]
  Increase in mRNA for Abcb1a in the small intestine: 4.7 fold
[8]; [32]
  Change in mRNA for Abcb1b in the small intestine: no change
[9]
  Change in mRNA for Abcg2 in the small intestine: no change

## Nc1ccc(S(=O)(=O)Nc2ccnn2-c2ccccc2)cc1 [sulfaphenazole]
[6]
  Inhibition of OH-vemurafenib formation: partial decrease; also recorded: small but statistically significant decrease

## CCCS(=O)(=O)Nc1ccc(F)c(C(=O)c2c[nH]c3ncc(-c4ccc(Cl)cc4)cc23)c1F [vemurafenib, Vemurafenib]
[10]
  Metabolic stability: highly stable
[11]; HLM vs MLM
  Vmax for HLM relative to MLM: approximately 10 fold
[11]; HLM, Hill equation fit
  S50 of OH-vemurafenib formation: 23.2 ± 0.8 µM
  Vmax of OH-vemurafenib formation: 4879 ± 108 peak area/min/mg
[12]
  S50 of OH-vemurafenib formation: 23.8 ± 4.9 µM
  Vmax of OH-vemurafenib formation: 467 ± 54 peak area/min/mg
[13]
  IC50: 14.9 µM
[14]
  Toxicity to DPX2 cells: highly toxic
[4]; vemurafenib 50 mg/kg oral after PCN for three days
  Decrease in Cmax and AUCall and increase in CL in huCYP3A4/3A7 PCN group relative to Cyp3aKO/Cyp3a13+/+ PCN group: not statistically significant
[1]; male, huPXR/huCAR/huCYP3A4/3A7, mouse, whole blood, po, 50 mg/kg, RIF alone, Figure 5A
  AUC: 90 ± 13 µg·h/mL
[1]; male, huPXR/huCAR/huCYP3A4/3A7, mouse, whole blood, po, 50 mg/kg, huPXR/huCAR/huCYP3A4/3A7 mice, RIF pre-treatment, Figure 3A
  AUC: 121 ± 18 µg·h/mL
[1]; male, huPXR/huCAR/huCYP3A4/3A7, mouse, whole blood, po, 50 mg/kg, huPXR/huCAR/huCYP3A4/3A7 mice, vehicle pre-treatment, Figure 3A
  AUC: 432 ± 169 µg·h/mL
[1]; male, huPXR/huCAR/huCYP3A4/3A7, mouse, whole blood, po, 50 mg/kg, vehicle (CO) alone, Figure 5A
  AUC: 391 ± 112 µg·h/mL
[1]; male, huPXR/huCAR/huCYP3A4/3A7, mouse, whole blood, po, 50 mg/kg, vehicle (CO) then elacridar, Figure 5A
  AUC: 684 ± 85 µg·h/mL
[1]; male, huPXR/huCAR/huCYP3A4/3A7, mouse, whole blood, po, 50 mg/kg, Cmax of vemurafenib, vehicle (CO) then elacridar, Figure 5A
  Cmax: 37800 ± 3500 ng/mL
[15]
  AUC: 75 ± 33 µg·h/mL
[7]; [33]
  Change in small intestinal Abcb1a mRNA expression: no change
[8]; [33]
  Change in small intestinal Abcb1b mRNA expression: no change
[16]
  Change in small intestinal CYP3A4 mRNA expression: no change
[2]
  Hepatic Cyp2b / Cyp2b10 protein (Western blot): weak induction
[17]
  Hepatic Cyp1a protein (Western blot): moderate induction
[18]
  AUC: 1140 ± 242 µM·h
  Cmax: 122 ± 19.7 µM
[19]; 60 μM compound, 400 pmol/mL enzyme, 15 min
  Generation of OH-vemurafenib by recombinant CYP: formed
[19]; S50 CYP3A4 vs CYP2C9
  Affinity for vemurafenib, CYP3A4 relative to CYP2C9: 2 fold
[20]
  Generation of OH-vemurafenib by recombinant CYP: formed
[3]; huPXR/huCAR/huCYP3A4/3A7 mice
  Hepatic CYP3A4 protein (Western blot): weak induction
[21]
  AUC0-24 necessary to effect regression of COLO205 xenografts: 300 µM·h
[22]
  Cmax: 86 ± 32 µM
[23]
  Objective tumour response: 48%
[24]; 0 – 48 hr period
  Recovered radioactivity in the parental form: ≥ 94%
[24]; 48 – 96 hr period
  Recovered radioactivity in the parental form: 55.5 ± 20.1%
[24]
  Time for 95% of the radioactive dose to be recovered: 18 days
  Total dose recovered within the first 96 hours: 68.5%
[24]; over 18 days
  Radioactive dose recovered in faeces: 94%
  Radioactive dose recovered in urine: 1%
[25]
  Decrease in AUC0-last of the CYP3A4-specific probe midazolam: 39%
[26]
  Increase in AUC0-last of the CYP1A2 probe caffeine: 160%
[27]
  Increase in AUC0-last of the CYP2D6 probe dextromethorphan: 47%
[28]
  Aqueous solubility: 0.01 to 10 µg/mL
[29]
  ABCB1 interaction: both an ABCB1 substrate and inhibitor
[30]
  Km at 0.15 h: 20.4 ± 1.7 µM
[31]
  EC50: 8.13 µM
[31]; DPX2 cells, 48 hours, fold change vs vehicle control
  EMAX of PXR activation: 8.54 fold

## monohydroxy-vemurafenib [OH-vemurafenib]
[24]; 48 – 96 hr samples
  OH-vemurafenib as share of the total dose: 3.4%
  OH-vemurafenib share of recovered radioactivity: 13.7%
